Measurements as given in patent EP0966960A1, “Agent for inhibiting carcinogenesis or tumor metastasis” (DAINIPPON INK AND CHEMICALS, INC., priority 1998, dated 1999).

Legend:
[1] = test system: colon cancer strain highly metastasizable to liver (MOUSE COLON 26); assay: Inhibition of metastasis of colon cancer to liver; type: in vivo, BALB/c mouse; settings: for Number of visible tumor tubers (average ± SD): liver
Method: The abdomen of a BALB/c mouse was sectioned, and 2 × 10^4 cells of a colon cancer strain highly metastasizable to liver (MOUSE COLON 26) were injected into the portal vein. Zeaxanthin (4 µg/mouse in Test Example 1; 40 µg/mouse in Test Example 2; 400 µg/mouse in Test Example 3) and all-trans retinoic acid (ATRA) as a positive control were orally administered everyday for 5 consecutive days after the inoculation with tumor cells and then the administration was discontinued for 2 days. The cycle of the 5-day administration and the 2-day discontinuation was repeated twice. Twenty days later, the mouse was sacrificed, and the number of visible tumor tubers in the liver was counted. In Table 2, the mark "*" indicates a significant difference when p < 0.005 (Whitney's U-test).

[2] = test system: Naturally Occurring Hepatoma; assay: Carcinogenesis-inhibiting effect with regard to naturally occurring hepatoma; type: in vivo, C3H/He female mice
Method: C3H/He female mice (control group: 14 mice; test group: 12 mice), in which hepatoma is known to occur naturally, were allowed to freely take food and water for 40 weeks. For the mice of the test group, 20 mg zeaxanthin (having a purity of 98.5%) which was obtained in a manner similar to that of the above example of production of zeaxanthin was suspended in 1 ml dimethyl sulfoxide (DMSO), and thereafter the suspension was added to the drinking water of the test so that the final concentration of zeaxanthin was 0.005%. On the other hand, for the control group, only DMSO in the same amount was added to the drinking water. At the end of the 40 weeks, both groups of mice were sacrificed, and the number of tumors which occurred in the liver was counted.

[3] = test system: B16-BL6 melanoma cells; assay: Inhibition of invasion of basement membrane (Transwell chamber); type: cell-based; settings: 4 hours
Method: The action mechanism of zeaxanthin for inhibiting metastasis of colon cancer to the liver in Example 2 was examined using a Transwell chamber.
A chamber which is separated into two layers (upper and lower layers) by a membrane filter having pores of 8 µm in diameter was used, the upper surface of the filter being coated with 5 µg of matrigel (a substrate for restructuring a basement membrane), and the lower surface being coated with 1 µg of fibronectin. B16-BL6 melanoma cells having a cell density of […] were added to the upper layer of the chamber, and were incubated in a 5%-CO2 incubator at 37°C for 4 hours in the presence of 0.05∼500 µM of zeaxanthin. After the incubation, the number of cells which invaded the surface of the lower part of the filter and shifted thereto were counted using an optical microscope. […]

[4] = test system: lung cancer; assay: Inhibition of carcinogenesis (lung), 4-nitroquinoline-1-oxide initiator / glycerin promoter; type: in vivo, ddY mice
Method: As a carcinogenesis initiator, 4-nitroquinoline-1-oxide dissolved in a solution of olive oil and cholesterol mixed in the ratio of 20:1 was administered subcutaneously in a single dose to ddY mice (a control group of 15 mice and a test group of 15 mice) in an amount of 10 mg/3.3ml/kg weight. Four weeks after administration, an 8% water solution of glycerin as a carcinogenesis promoter was given to the mice of the control group as drinking water for 25 weeks in a manner such that they could take it freely. (The duration of carcinogenesis promotion was 25 weeks).
In a manner similar to that for the control group, the carcinogenesis initiator was subcutaneously administered to the mice of the test group, and 4 weeks after the administration, an 8% water solution of glycerin as a carcinogenesis promoter was given to the mice of the test group as drinking water for 25 weeks in a manner such that they could take it freely, while zeaxanthin suspended in a liquid mixture of olive oil and "Tween 80" was forcibly administered to the mice of the test group 3 times a week throughout the 25-week duration of carcinogenesis promotion in an amount of 0.2 g per mouse per administration.
In addition, food and drinking water was given to the mice in a manner such that they could take it freely. Twenty five weeks after the start of the administration of zeaxanthin, that is, after the duration of carcinogenesis promotion was completed, the mice of both the control group and the test group were sacrificed, and the number of mice in which lung cancer occurred, and the average number of tumors were counted.
In Table 4, those values in parentheses indicate values obtained by dividing the number of mice in each group in which lung cancer occurred by the total number of mice in each group. The average number of tumors was obtained by dividing the total number of tumors in all mice in each group by the total number of mice in each group.

[5] = test system: skin cancer; assay: Inhibition of carcinogenesis (skin), 7,12-dimethylbenz[a]anthracene / TPA; type: in vivo, ICR male mouse
Method: The back of an ICR male mouse (control group: 15 mice; test group: 14 mice) was shaved, and 100 µg of 7,12-dimethylbenz[a]anthracene in 100 µl of acetone was applied thereto. Two days after the application, application of 1.6 nmol of 12-O-tetradecanoylphorbal-13-acetate (TPA) in 100 µl of acetone was begun and repeated twice a week. The duration of carcinogenesis promotion was set to 15 weeks.
An hour before every TPA application, 160 nmol zeaxanthin (which makes the molar ratio of TPA to zeaxanthin 1:100) in 100 µl of acetone was applied to the mice of test group. After the 15-week duration of carcinogenesis promotion, the ratio of occurrence of skin tumor and the average number of tumors were measured.
In Table 5, those values in parentheses indicate values obtained by dividing the number of mice in each group in which skin cancer occurred by the total number of mice in each group. The average number of tumors was obtained by dividing the total number of tumors in all mice in each group by the total number of mice in each group.

[6] = Acute toxicity test on mice; parameters: species or system mouse (ICR male); settings: mouse, in vivo; oral by gastric probe, 1000 or 2000 mg/kg, n=3, 7 days observation; approximate, estimated from survival rate
Method: Using a gastric probe, zeaxanthin (having a purity of 98.5%) was forcibly orally administered to each mouse (ICR male weighing 20∼25 g, n=3) in an amount of 1000 or 2000 mg/kg. After the oral administration, the mice were reared in a cage for 7 days to observe the number of deaths and general conditions. An approximate median lethal dose (LD50, in mg/kg) was estimated from the survival rate of the mice after observation.

[7] = from average number of tumors, test group versus control group

SMILES: CC1=C(/C=C/C(C)=C/C=C/C(C)=C/C(=O)O)C(C)(C)CCC1 [ATRA, all-trans retinoic acid, reference compound]
- Number of visible tumor tubers (average ± SD) ([1]; positive control, orally, dose not given, twenty days later, * p < 0.005): 0.83 ± 1.17*
- Average weight of liver ([1]; positive control, orally, dose not given, twenty days later): 0.92 g

SMILES: CC1=C(/C=C/C(C)=C/C=C/C(C)=C/C=C/C=C(C)/C=C/C=C(C)/C=C/C2=C(C)C[C@@H](O)CC2(C)C)C(C)(C)C[C@H](O)C1 [zeaxanthin]
- inhibition rate ([2]; test group versus control group, 40 weeks): 95%
- Number of mice in which tumor occurred (percentage) ([2]; zeaxanthin 0.005% in drinking water, 40 weeks, 12 mice (control 35.7%)): 8.3%
- Number of mice in which tumor occurred ([2]; zeaxanthin 0.005% in drinking water, 40 weeks, 12 mice, liver tumors (control 5 of 14)): 1
- Average number of tumors ([2]; zeaxanthin 0.005% in drinking water, 40 weeks, liver (control 1.75)): 0.08
- Number of visible tumor tubers (average ± SD) ([1]; 4 µg/mouse orally, 5 days on / 2 days off, cycle repeated twice, twenty days later (no administration 12.25 ± 6.13)): 6.86 ± 2.27
- Average weight of liver ([1]; 4 µg/mouse orally, twenty days later (no administration 2.16)): 1.36 g
- Number of visible tumor tubers (average ± SD) ([1]; 40 µg/mouse orally, 5 days on / 2 days off, cycle repeated twice, twenty days later, * p < 0.005): 1.87 ± 1.96*
- Average weight of liver ([1]; 40 µg/mouse orally, twenty days later): 0.99 g
- Number of visible tumor tubers (average ± SD) ([1]; 400 µg/mouse orally, 5 days on / 2 days off, cycle repeated twice, twenty days later, * p < 0.005): 1.00 ± 2.13*
- Average weight of liver ([1]; 400 µg/mouse orally, twenty days later): 0.99 g
- Number of cells which invaded/shifted to basement membrane ([3]; 0.05 µM, 37°C (DMSO only 157 ± 21)): 137 ± 17
- Number of cells which invaded/shifted to basement membrane ([3]; 0.5 µM, 37°C): 119 ± 17
- Number of cells which invaded/shifted to basement membrane ([3]; 5 µM, 37°C, * p < 0.05): 109 ± 12*
- Number of cells which invaded/shifted to basement membrane ([3]; 50 µM, 37°C, ** p < 0.005): 88 ± 7**
- Number of cells which invaded/shifted to basement membrane ([3]; 500 µM, 37°C, ** p < 0.005): 36 ± 12**
- Average number of tumors ([4]; 0.2 g per mouse per administration, 3 times a week, 25 weeks (control 1.40)): 0.38
- Number of mice in which lung cancer occurred (divided by total number of mice) ([4]; 0.2 g per mouse per administration, 3 times a week, 25 weeks (control 73%)): 33%
- Number of mice in which lung cancer occurred ([4]; 0.2 g per mouse per administration, 3 times a week, 25 weeks, 15 mice (control 11 of 15)): 5
- Inhibition ratio of carcinogenesis [4, 7]: 73%
- Average number of tumors ([5]; 160 nmol applied an hour before every TPA application, 15 weeks (control 1.60)): 0.86
- Number of mice in which skin cancer occurred (divided by total number of mice) ([5]; 160 nmol applied an hour before every TPA application, 15 weeks (control 47%)): 21%
- Number of mice in which skin cancer occurred ([5]; 160 nmol applied an hour before every TPA application, 15 weeks, 14 mice (control 7 of 15)): 3
- Inhibition ratio of carcinogenesis [5, 7]: 46%
- LD50 at 168 h [6]: > 2000 mg/kg

SMILES: CC1=C(/C=C/C(C)=C/C=C/C(C)=C/C=C/C=C(C)/C=C/C=C(C)/C=C/C2=C(C)CCCC2(C)C)C(C)(C)CCC1 [β-carotene, reference compound]
- effect in inhibiting natural carcinogenesis ([2]; experiments conducted in the same manner as in Example 1): no such effect
